Values after ≈ are worked out from the molar mass of the structure shown. Read-outs that look alike come from different tables or passages of the source.
Assays:
Type in all cases: cell-based, Candida albicans
C. albicans DSY294 = assay: Antifungal MIC/MLC (broth microdilution)
Description: (§1) Twenty-three fungal strains were used in this study, including reference strains and clinical isolates of yeasts and filamentous fungi. Yeast strains included reference strains (ATCC—American Type Culture Collection and CECT—Colección Española de Cultivos Tipo) and clinical isolates: C. albicans ATCC 10231, Candida krusei ATCC 6258, C. albicans H37, C. albicans FF172, C. albicans FF176, C. albicans DSY294, C. albicans DSY296, C. glabrata DSY562, C. glabrata DSY565 and Cryptococcus neoformans CECT 1078. Filamentous fungi included Aspergillus fumigatus ATCC 240305, A. fumigatus C111, A. niger ATCC 16404, A. flavus F44, Fusarium solani FF125, F. oxysporum FF115, and dermatophytes Trichophyton rubrum FF5, T. mentagrophytes FF7, Microscoporum canis FF1 and Nannizzia gypsea FF3 (formerly Microsporum gypseum) and a species of genera Mucor, Lichetheimia and Scedosporium. Saprolegnia parasitica CBS 223.65, a reference strain of an oomycete fish pathogen, was also included. All microorganisms were kept in Sabouraud Dextrose Broth (SDB: BioMérieux, Marcy L'Etoile, France) plus glycerol (20%) at −80° C. The strains were kept in Sabouraud Dextrose Agar (SDA: BioMérieux, Marcy L'Etoile, France) slants and were sub-cultured in SDA before each test. S. parasitica was kept in Corn Meal Agar plates (CMA: BBL™ Corn Meal Agar, BD, Le Pont-de-Claix, France) and was sub-cultured in CMA before each experiment. C. albicans H37, was kindly provided by Cidilia Pina Vaz (CHSJ, Porto, Portugal) and C. albicans DSY294, C. albicans DSY296, C. glabrata DSY562, C. glabrata DSY565 were kindly provided by D. Sanglard (University of Lausanne, Switzerland). A stock solution of compound 1 (10 mg/mL), was prepared in dimethyl sulfoxide (DMSO 99%: Alfa Aesar, Kandel, Germany), kept at −20 degrees C., and freshly diluted in the appropriate culture media before each assay. In all experiments, in-test concentrations of DMSO were kept below 2%.
(§2) Antifungal activity was evaluated by determining the MIC of compound 1 by the broth microdilution method, according to CLSI guidelines (reference documents M27-A3 for yeasts and M38-A2 for filamentous fungi). Briefly, cell or spore suspensions were prepared in RPMI-1640 broth medium (Biochrom, Berlin, Germany) buffered with 3-(N-morpholino)propane sulfonic acid (MOPS) (Sigma-Aldrich, St. Louis, MO, USA) (henceforth referred to as RPMI) from fresh cultures of the different strains of fungi. For yeasts, the inoculum was adjusted to 0.5-2.5×10^3 CFU/mL. For filamentous fungi, the inoculum was adjusted to 1-3×10^3 CFU/mL for dermatophytes, and 0.4-5×10^4 CFU/mL for all other strains. […] Sterility and growth controls were included in each assay. The 96-well flat-bottomed untreated polystyrene microtiter plates which were incubated for 48 h at 35° C., with the exception of Lichetheimia spp. which was incubated at 25° C. for 48 h, and the dermatophyte strains, which incubated for 5-7 days at 25° C. […] The minimal lethal concentration (MLC) was determined by spreading 20 μL of culture collected from wells showing no visible growth on SDA plates. The MLC was determined as the lowest concentration showing complete growth inhibition after 48 h at 35 degrees C., 48 h at 25 degrees C.

C. albicans DSY296 = assay: Antifungal MIC/MLC (broth microdilution)
Description: as §1, §2

C. albicans FF172 = assay: Antifungal MIC/MLC (broth microdilution)
Description: as §1, §2

C. albicans FF176 = assay: Antifungal MIC/MLC (broth microdilution)
Description: as §1, §2

C. albicans H37 = assay: Antifungal MIC/MLC (broth microdilution)
Description: as §1, §2

C. albicans ATCC 10231 = assay: Mitochondrial dehydrogenases activity, MTT reduction assay; conditions: 2 h
Experimental: In order to determine whether compound 1 could also affect mitochondrial function, MTT reduction assay was performed. In this assay, tetrazolium salts are reduced to purple formazan derivatives by mitochondrial dehydrogenases, which can be measured spectrophotometrically and reported to mitochondrial activity and, indirectly, to cell viability. In this assay, cells were exposed to the test compounds for 2 h ([FIG. 11]). […] An increase in reactive oxygen species (ROS) has been linked to azoles activity: even though their primary mode of action is the inhibition of ergosterol synthesis, they also induce accumulation of ROS, which enhances their antifungal activity and translates into an increase in mitochondrial activity at inhibitory concentrations. […] Mitochondrial dehydrogenase activity was evaluated by the MTT assay, as previously described, with some modifications. Cell suspensions of C. albicans ATCC 10231 were prepared in the same manner as described above and, after overnight incubation at 36° C., were centrifuged at 3500 rpm for 15 min, the supernatant was removed, and the cells were carefully resuspended in 2 mL of RPMI. Test conditions and controls were the same as described above, but the time of exposure to the test compounds was 2 h. After the exposure time, cell suspensions were centrifuged at 3500 rpm for 10 min, the supernatant was removed, and 500 μL of MTT solution (0.5 mg/mL in RPMI, at 35° C.) (Thiazolyl Blue Tetrazolium Bromide, Alfa Aesar, Ward Hill, MA, USA) were added. After a 1 h incubation at 35° C., the insoluble formazan product resulting from the conversion of MTT by mitochondrial dehydrogenases of metabolically active cells was solubilized with 300 μL of DMSO. 100 μL of each sample were transferred in duplicate to a microtiter plate and the extent of the reduction of MTT to formazan was quantified by measuring the absorbance at 570 nm. Three independent assays were performed in duplicate, and the results are expressed as percentage of MTT reduction, using the untreated cells as control.

[1] = C. albicans DSY296, resistant to fluconazole or azoles
[2] = C. albicans FF176, resistant to fluconazole or azoles
[3] = C. albicans H37, resistant to fluconazole or azoles

SMILES	MIC (C. albicans DSY294; Candida albicans, DSY294) [µg/mL]	MIC (C. albicans DSY296; Candida albicans, DSY296, read-out: MIC) [µg/mL]	MIC (C. albicans FF172; Candida albicans, read-out: MIC) [µg/mL]	MIC (C. albicans FF176; Candida albicans, FF176, read-out: MIC) [µg/mL]	MIC (C. albicans H37; Candida albicans, H37, read-out: MIC) [µg/mL]	mitochondrial activity (MTT reduction) vs untreated control (C. albicans ATCC 10231; 8 μg/mL)	MIC (C. albicans DSY294; C. albicans DSY294) [µg/mL]	MLC (C. albicans DSY294; C. albicans DSY294) [µg/mL]	MIC (C. albicans DSY296; [1]) [µg/mL]	MLC (C. albicans DSY296; [1]) [µg/mL]	MIC (C. albicans FF172) [µg/mL]	MLC (C. albicans FF172) [µg/mL]	MIC (C. albicans FF176; [2]) [µg/mL]	MLC (C. albicans FF176; [2]) [µg/mL]	MIC (C. albicans H37; [3]) [µg/mL]	MLC (C. albicans H37; [3]) [µg/mL]	mitochondrial activity (MTT reduction) vs untreated control (C. albicans ATCC 10231; 128, 64, and 32 μg/mL (2×MIC, MIC, ½×MIC))
OC(Cn1cncn1)(Cn1cncn1)c1ccc(F)cc1F [Fluconazole, reference compound]	0.125 (≈ 0.408 µM)	64 (≈ 209 µM)	0.25 (≈ 0.816 µM)	32 (≈ 104 µM)	≥ 128	increase (non-significant)	–	–	–	–	–	–	–	–	–	–	–
C[C@H](CCC(=O)NCCN)[C@H]1CC[C@H]2[C@@H]3CC[C@@H]4C[C@H](O)CC[C@]4(C)[C@H]3C[C@H](O)[C@]12C [Compound 1, (R)—N-(2-aminoethyl)-4-((3R,5R,8R,9S,10S,12S,13R,14S,17R)-3,12-dihydroxy-10,13-dimethylhexadecahydro-1H-cyclopenta[a]phenanthren-17-yl) pentanamida]	–	–	–	–	–	–	64 (≈ 147 µM)	64 (≈ 147 µM)	64 (≈ 147 µM)	64 (≈ 147 µM)	64 (≈ 147 µM)	64 (≈ 147 µM)	32 (≈ 73.6 µM)	32 (≈ 73.6 µM)	64 (≈ 147 µM)	64 (≈ 147 µM)	significant reduction of mitochondrial activity

Source: US20250002450A1, “CATIONIC STEROID COMPOUNDS, METHOD OF OBTAINING THEREOF, FORMULATIONS COMPRISING THEREOF AND THEIR USES” (UNIVERSIDADE DO PORTO, priority 2021, published 2025)
